The compounds below were run on primary human colon epithelial cells infected with EHEC (assay: Colon chip EHEC infection, epithelial lesion analysis). Details: metabolites added individually to a colon-chip.
Assay type: cell-based
Experimental: Referring generally to FIGS. 18A-18C, microbiome metabolites recapitulate species-specific tolerance in Colon Chips. Human or mouse intestinal microbiome metabolites (e.g., isolated from specific strains of bacterial or fecal samples incubated in a bioreactor) were added to the intestinal channel of optically clear, human colon chips that are lined by primary human colon epithelial cells and directly opposed to a second parallel vascular microchannel in which HIMVECs are cultured. The two channels are separated by a thin, porous, ECM-coated membrane. Human intestinal epithelium was isolated from resections or endoscopic tissue biopsies. Endoscopic biopsies were collected from macroscopicallynormal (grossly unaffected) areas of the colon undergoing endoscopy for abdominal complaints. Organoids were grown from these tissue samples and seeded into the upper chamber of a two channel closed top microfluidic device. Human intestinal microvascular endothelial cells (HIMECs) were obtained from ScienCell (Cat #2900). The intestinal luminal channel medium was switched to 5% (vol vol-1) human (Hmm) or mouse (Mmm) gut microbiome metabolites isolated from PolyFermS bioreactors, diluted in phosphate-buffered saline (PBS) containing calcium and magnesium (final osmolarity=300 mOsm kg-1), filtered through a 0.2 μm filter (Corning), and stored at −80° C.
For example, on day 8 of a colon chip culture, the luminal culture medium is replaced with the same medium supplemented with human or murine microbiome metabolites (diluted 1:20 in a PBS-water based solution to 300 mOsm kg-1), while continuing to flow the same endothelial culture medium through the vascular channel. Perfusion is continued for 24 hours, followed by introduction of EHEC (1.7×105; serotype O157:H7) into the apical lumen in the same medium for 3 hours under static conditions to allow for bacterial cell attachment; medium flow is then re-established and continued for 24 additional hours.
Referring to colon chip infection, colon chips were cultured in the intestinal lumen channel of a chip in 5% (vol vol-1) human or mouse gut microbiome metabolites isolated from PolyFermS bioreactors, diluted in phosphate-buffered saline (PBS; final osmolarity=300 mOsm kg-1) or 24 hours. The following day, the intestinal channel was infected with 1.7×105. EHEC-GFP or EHEC A fliC (both generated from NR-3 E. coli/EDL931; serotype O157:H7), by adding the bacteria into the channel lumen in medium again with or without Hmm or Mmm. […]
For epithelial lesion analysis, one day post-infection, colon chips were washed with PBS and fixed with 4% paraformaldehyde in PBS for 2 hours. […] The area occupied by cells and the total area of the chip were measured using Fiji software.

SMILES | epithelial injury during a EHEC infection of the chip
Cc1ccc(C(=O)O)cc1 [4-methyl benzoic acid] | enhance epithelial injury
Cc1ccc(C(=O)O)cc1C [3,4-dimethylbenzoic acid] | enhance epithelial injury
CCCCCC(=O)O [hexanoic acid] | enhance epithelial injury
CCCCCCC(=O)O [heptanoic acid] | enhance epithelial injury
